Test results taken from US9266832B2, “Compounds for the treatment of neurodegenerative diseases” (Katholieke Universiteit Levun, priority 2010, dated 2016).
pEC50: −log10 of the molar value.

Tested on: M17-TAU P301L cells
Assay: Tau-induced toxicity experiment: LDH leakage of retinoic acid incubated M17-TAU P301L cells
Format: cell-based
Details: Homo sapiens, Neuroblastoma cell, 168 h; reduction of LDH activity of retinoic acid incubated M17-TAU P301L neuroblastoma cells, 7 days
Source text: A TAU expression plasmid was constructed by sub-cloning the cDNA of human TAU-P301L (encoding for TAU with proline 301 substituted by a leucine residue) into mammalian expression vector pcDNA3.1 resulting in plasmid pcDNA3.1-TAU P301L. Plasmids pcDNA3.1 and pcDNA3.1-TAU P301L were transfected to human neuroblastoma cells ([…]; ATCC No. CRL-2267) and independent clonal lines with the plasmids stably integrated into the genome were selected. […] Expression of the TAU P301L genes in the cell lines was confirmed by Western analysis.
In degenerated or dead cells lactate dehydrogenase (LDH) is leaked out of the cells into the extracellular environment due to a loss of plasma-membrane integrity. This principle was used to determine cytotoxicity by quantifying the level of leaked LDH into the growth medium.
The detailed method for determining TAU cytotoxicity was as follows: From appropriate precultures of M17-3.1 and M17-TAU(P301L) cells were seeded at 2500 cells/cm2 in Optimem Reduced Serum without phenol red (Gibco, Cat. 31985-047) supplemented with 1% fetal calf serum, 1 mM sodium pyruvate, 1× non-essential amino acids, 500 μg/ml G418 0.5× antibiotic/antimycotic. After 3 h of incubation at 37° C./5% CO2 1 volume of Optimem Reduced Serum (same as described above; except without fetal calf serum) supplemented with 2.5 μM retinoic acid (RA) was added. The cells were further incubated for 7 days. Subsequently, LDH activity was determined using Promega Cytotox 96 Non-Radioactive cytotoxicity assay, (Cat. G1780) according the supplier's instructions.
The M17-TAU P301L cell line made it possible to assess the ability of novel compounds to counteract TAU cytotoxicity. […] These measurements were used to calculate EC50 values of table 2.

Compound | pEC50
N#Cc1ccc(Cc2ccc(C(=O)NCCc3c[nH]c4ccc(Cl)cc34)cc2)cc1 [Cpd031, N-(2-(5-chloro-1H-indol-3-yl)ethyl)-4-(4-cyanobenzyl)benzamide] | 7.80
CN(c1ccccc1)c1cccc(C(=O)NCCc2c[nH]c3ccc(Cl)cc23)c1 [Cpd097, N-(2-(5-chloro-1H-indol-3-yl)ethyl)-3-(methyl(phenyl)amino)benzamide] | 6.57
O=C(NCCc1c[nH]c2ccc(Cl)cc12)c1ccc(Cc2ccc(C(F)(F)F)cc2)cc1 [Cpd039, N-(2-(5-chloro-1H-indol-3-yl)ethyl)-4-(4-(trifluoromethyl)benzyl)benzamide] | 7.66
O=C(NCCc1c[nH]c2ccc(Cl)cc12)c1cccc(Cc2cccc(Cl)c2)c1 [Cpd055, N-(2-(5-chloro-1H-indol-3-yl)ethyl)-3-(3-chlorobenzyl)benzamide] | 7.44
O=C(NCCc1c[nH]c2ccc(Cl)cc12)c1ccc(Cc2cccc(F)c2F)cc1 [Cpd103, N-(2-(5-chloro-1H-indol-3-yl)ethyl)-4-(2,3-difluorobenzyl)benzamide] | 6.86
Cc1[nH]c2ccc(Cl)cc2c1CCNC(=O)c1ccc(Cc2cccc(F)c2)cc1 [Cpd098, N-(2-(5-chloro-2-methyl-1H-indol-3-yl)ethyl)-4-(3-fluorobenzyl)benzamide] | 6.27
O=C(NCCc1c[nH]c2ccc(Cl)cc12)c1cccc(Cc2cccc(F)c2)n1 [Cpd117, N-(2-(5-chloro-1H-indol-3-yl)ethyl)-6-(3-fluorobenzyl)picolinamide] | 6.96
N#Cc1cccc(Cc2cccc(C(=O)NCCc3c[nH]c4ccc(Cl)cc34)c2)c1 [Cpd038, N-(2-(5-chloro-1H-indol-3-yl)ethyl)-3-(3-cyanobenzyl)benzamide] | 7.51
O=C(NCCc1c[nH]c2ncc(Cl)cc12)c1ccc(Cc2cccc(F)c2)cc1 [Cpd101, N-(2-(5-chloro-1H-pyrrolo[2,3-b]pyridin-3-yl)ethyl)-4-(3-fluorobenzyl)benzamide] | 5.98
COc1cccc(Cc2cccc(C(=O)NCCc3c[nH]c4ccc(Cl)cc34)c2)c1 [Cpd058, N-(2-(5-chloro-1H-indol-3-yl)ethyl)-3-(3-methoxybenzyl)benzamide] | 6.90
N#Cc1cccc(Cc2ccc(C(=O)NCCc3c[nH]c4ccc(Cl)cc34)cc2)c1 [Cpd032, N-(2-(5-chloro-1H-indol-3-yl)ethyl)-4-(3-cyanobenzyl)benzamide] | 7.85
O=C(NCCc1c[nH]c2ccc(F)cc12)c1cccc(Cc2cccc(F)c2)c1 [Cpd082, N-(2-(5-fluoro-1H-indol-3-yl)ethyl)-3-(3-fluorobenzyl)benzamide] | 6.95
O=C(NCCc1c[nH]c2ccc(Cl)cc12)c1ccc(Cc2ccc(Cl)cc2)cc1 [Cpd045, N-(2-(5-chloro-1H-indol-3-yl)ethyl)-4-(4-chlorobenzyl)benzamide] | 7.66
O=C(NCCc1c[nH]c2ccc(Cl)cc12)c1ccc(Cc2ccco2)cc1 [Cpd087, N-(2-(5-chloro-1H-indol-3-yl)ethyl)-4-(furan-2-ylmethyl)benzamide] | 6.88
Cc1cccc(Cc2cccc(C(=O)NCCc3c[nH]c4ccc(Cl)cc34)c2)c1 [Cpd035, N-(2-(5-chloro-1H-indol-3-yl)ethyl)-3-(3-methylbenzyl)benzamide] | 7.22
O=C(NCCc1c[nH]c2ccc(Cl)cc12)c1cccc(Nc2ccccc2)c1 [Cpd094, N-(2-(5-chloro-1H-indol-3-yl)ethyl)-3-(phenylamino)benzamide] | 6.79
O=C(NCCc1c[nH]c2ccc(Cl)cc12)c1ccc(Cc2ccccc2C(F)(F)F)cc1 [Cpd041, N-(2-(5-chloro-1H-indol-3-yl)ethyl)-4-(2-(trifluoromethyl)benzyl)benzamide] | 7.10
COc1cccc(Cc2cccc(C(=O)NCCc3c[nH]c4ccc(Cl)cc34)c2)c1F [Cpd066, N-(2-(5-chloro-1H-indol-3-yl)ethyl)-3-(2-fluoro-3-methoxybenzyl)benzamide] | 6.41
N#Cc1ccccc1Cc1cccc(C(=O)NCCc2c[nH]c3ccc(Cl)cc23)c1 [Cpd060, N-(2-(5-chloro-1H-indol-3-yl)ethyl)-3-(2-cyanobenzyl)benzamide] | 6.94
O=C(NCCc1c[nH]c2ccc(Cl)cc12)c1cccc(Cc2cc(F)cc(F)c2)c1 [Cpd065, N-(2-(5-chloro-1H-indol-3-yl)ethyl)-3-(3,5-difluorobenzyl)benzamide] | 6.76
O=C(NCc1c[nH]c2ccc(Cl)cc12)c1ccc(Cc2cccc(F)c2)cc1 [Cpd071, N-((5-chloro-1H-indol-3-yl)methyl)-4-(3-fluorobenzyl)benzamide] | 6.56
O=C(NCCc1c[nH]c2ccc(Cl)cc12)c1cccc(Cc2ccc(Cl)cc2)c1 [Cpd050, N-(2-(5-chloro-1H-indol-3-yl)ethyl)-3-(4-chlorobenzyl)benzamide] | 7.30
O=C(NCCc1c[nH]c2ccc(Cl)cc12)c1cccc(Cc2ccsc2)c1 [Cpd076, N-(2-(5-chloro-1H-indol-3-yl)ethyl)-3-(thiophen-3-ylmethyl)benzamide] | 7.54
O=C(NCCc1c[nH]c2ccc(Cl)cc12)c1ccc(Cc2cccc(F)c2)cn1 [Cpd107, N-(2-(5-chloro-1H-indol-3-yl)ethyl)-5-(3-fluorobenzyl)picolinamide] | 7.59
CN(c1ccc(C(=O)NCCc2c[nH]c3ccc(Cl)cc23)cc1)c1cccc(F)c1 [Cpd104, N-(2-(5-chloro-1H-indol-3-yl)ethyl)-4-((3-fluorophenyl)(methyl)amino)benzamide] | 6.58
O=C(NCCc1c[nH]c2ccc(Cl)cc12)c1cccc(Cc2cncc(F)c2)c1 [Cpd069, N-(2-(5-chloro-1H-indol-3-yl)ethyl)-3-((5-fluoropyridin-3-yl)methyl)benzamide] | 7.05
O=C(NCCc1c[nH]c2ccc(-c3ccccc3)cc12)c1ccc(Cc2cccc(F)c2)cc1 [Cpd111, 4-(3-fluorobenzyl)-N-(2-(5-phenyl-1H-indol-3-yl)ethyl)benzamide] | 6.27
O=C(NCCc1c[nH]c2ccc(Cl)cc12)c1ccc(Cc2cc(F)cc(F)c2)cc1 [Cpd067, N-(2-(5-chloro-1H-indol-3-yl)ethyl)-4-(3,5-difluorobenzyl)benzamide] | 6.95
O=C(NCCc1c[nH]c2ccc(Cl)cc12)c1ccc(Cn2ccnc2)cc1 [Cpd012, 4-((1H-imidazol-1-yl)methyl)-N-(2-(5-chloro-1H-indol-3-yl)ethyl)benzamide] | 6.31
O=C(NCCc1c[nH]c2ccc(Cl)cc12)c1ccc(Cc2ccc(F)cc2)cc1 [Cpd061, N-(2-(5-chloro-1H-indol-3-yl)ethyl)-4-(4-fluorobenzyl)benzamide] | 7.07
